Test results from the supplement of paper PMC10307832.

Tests used:
Assay in all cases: relative viability (nuclei count vs DMSO), 5 days (fraction); higher = more cells survive
[1] = compound: CN1CCN(CC1)C2=CC(=C(C=C2)NC3=NC(=C(S3)C(=O)C4=C(C=CC=C4Cl)Cl)N)OC [XMD14-99] + Cc1nc(Nc2ncc(C(=O)Nc3c(C)cccc3Cl)s2)cc(N2CCN(CCO)CC2)n1 [Dasatinib] (partner 0.075 µM)
How it was run: (§1)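 Medians of duplicate plates are given as relative viability. That measure is the nuclei count in treated wells divided by the count in vehicle wells. Counts were taken on 4× images of lung cancer cell lines in 1536-well plates, 5 days after pin-tool dosing the day after seeding with one drug alone or a fixed anchor-drug dose plus five library-drug doses (not always all listed) in √10 steps.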

[2] = compound: CN1CCN(CC1)C2=CC(=C(C=C2)NC3=NC(=C(S3)C(=O)C4=C(C=CC=C4Cl)Cl)N)OC [XMD14-99] + O=C(c1cc(Cc2n[nH]c(=O)c3ccccc23)ccc1F)N1CCN(C(=O)C2CC2)CC1 [Olaparib] (partner 8 µM)
How it was run: as §1

[3] = compound: N[C@@H]1CCCN(c2c(/C=C3\SC(=O)NC3=O)cccc2-c2ccccc2)C1 [AZD1208] + CS(=O)(=O)N1CCN(Cc2cc3nc(-c4cccc5[nH]ncc45)nc(N4CCOCC4)c3s2)CC1 [Pictilisib] (partner 1 µM)
How it was run: as §1

[4] = compound: N[C@@H]1CCCN(c2c(/C=C3\SC(=O)NC3=O)cccc2-c2ccccc2)C1 [AZD1208] + O=C(c1cc(Cc2n[nH]c(=O)c3ccccc23)ccc1F)N1CCN(C(=O)C2CC2)CC1 [Olaparib] (partner 8 µM)
How it was run: as §1

UMC-11
relative viability ([1]; first compound 0.08 µM): 0.441 | relative viability ([1]; first compound 0.8 µM): 0.478 | relative viability ([1]; first compound 2.53 µM): 0.438 | relative viability ([1]; first compound 8 µM): 0.344 | relative viability ([2]; first compound 0.08 µM): 0.363 | relative viability ([2]; first compound 0.8 µM): 0.313 | relative viability ([2]; first compound 2.53 µM): 0.345 | relative viability ([2]; first compound 8 µM): 0.288 | relative viability ([3]; first compound 0.08 µM): 0.507 | relative viability ([3]; first compound 0.253 µM): 0.612 | relative viability ([3]; first compound 0.8 µM): 0.51 | relative viability ([3]; first compound 2.53 µM): 0.389 | relative viability ([3]; first compound 8 µM): 0.344 | relative viability ([4]; first compound 0.08 µM): 0.27 | relative viability ([4]; first compound 0.253 µM): 0.374 | relative viability ([4]; first compound 0.8 µM): 0.333 | relative viability ([4]; first compound 2.53 µM): 0.309 | relative viability ([4]; first compound 8 µM): 0.264
